According to publication PMC11600167 (JACS Au, 2024):

Tests used:
Test in all cases: glycan microarray on Cu2O@Ag slides
Assay type in all cases: binding
[1] = biological target: T1, hGal-1 (human galectin-1) (Homo sapiens, UniProt P09382); settings: immobilised glycan via azide linker; hGal-1 25 μg/mL
T1 construct: gene LGALS1; dimeric lectin; construct details only in supplement

[2] = biological target: T2, hGal-7 (human galectin-7) (Homo sapiens, UniProt P47929); settings: immobilised glycan via azide linker; hGal-7 25 μg/mL
T2 construct: gene LGALS7; construct details only in supplement

[3] = biological target: T3, hGal-3 (human galectin-3) (Homo sapiens, UniProt P17931); settings: immobilised glycan via azide linker; hGal-3 25 μg/mL
T3 construct: gene LGALS3; chimera-type galectin; construct details only in supplement
T3 sequence (P17931 2-250): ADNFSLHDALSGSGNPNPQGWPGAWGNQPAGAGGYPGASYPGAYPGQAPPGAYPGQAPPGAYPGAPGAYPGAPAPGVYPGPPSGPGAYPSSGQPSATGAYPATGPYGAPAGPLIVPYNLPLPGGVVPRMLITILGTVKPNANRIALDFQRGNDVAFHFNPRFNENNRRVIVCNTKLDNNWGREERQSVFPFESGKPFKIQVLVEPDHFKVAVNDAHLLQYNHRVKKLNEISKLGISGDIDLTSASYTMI

T1 sequence (P09382 2-135): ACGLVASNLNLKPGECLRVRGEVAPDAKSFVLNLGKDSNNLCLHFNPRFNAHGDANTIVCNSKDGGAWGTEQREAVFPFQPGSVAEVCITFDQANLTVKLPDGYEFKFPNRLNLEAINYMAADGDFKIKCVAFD
T2 sequence (P47929 whole entry): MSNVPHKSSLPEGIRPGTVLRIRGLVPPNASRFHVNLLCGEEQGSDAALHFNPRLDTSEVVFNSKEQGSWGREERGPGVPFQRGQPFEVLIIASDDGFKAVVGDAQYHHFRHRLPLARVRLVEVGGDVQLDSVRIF

Row | SMILES | glycan microarray on Cu2O@Ag slides [1] | glycan microarray on Cu2O@Ag slides [2] | glycan microarray on Cu2O@Ag slides [3]
1 | CC(=O)N[C@H]1[C@H](O[C@H]2[C@@H](O)[C@@H](CO)O[C@@H](O[C@H]3[C@H](O)[C@@H](O)C(O)O[C@@H]3CO)[C@@H]2O)O[C@H](CO)[C@@H](O)[C@@H]1O[C@@H]1O[C@H](CO)[C@H](O)[C@H](O)[C@H]1O (stereo partly drawn) [LNT] | LNT and LNnT, respectively) further increased the binding affinity | with LNT showing the strongest binding affinity | 
2 | CC(=O)N[C@H]1[C@H](O[C@H]2[C@@H](O)[C@@H](CO)O[C@@H](O[C@H]3[C@H](O)[C@@H](O)C(O)O[C@@H]3CO)[C@@H]2O)O[C@H](CO)[C@@H](O[C@@H]2O[C@H](CO)[C@H](O)[C@H](O)[C@H]2O)[C@@H]1O (stereo partly drawn) [LNnT] |  |  | The stronger affinity of LNnT compared to LNT
